From patent publication US11865126B2, “Method for treating anxiety disorders, headache disorders, and eating disorders with psilocybin” (priority 2019, dated 2024)

Tested on: healthy subjects
Experiment: Pictorial Empathy Test (PET)
Type: in vivo, human
Procedure: In some embodiments, the Pictorial Empathy Test (PET) is utilized to evaluate the effect of psilocybin on affective empathy.
The following list of outcome measures are non-exhaustive. • a. The short-term change from Baseline (Day −1 [Visit 2]) to Day 7 (Visit 5) in cognitive measures of attention, spatial and working memory and executive function was measured by a composite score of the CANTAB Panel (Spatial Working Memory [SWM], Rapid Visual Information Processing [RVP], Paired Associates Learning [PAL]). • b. The short-term change from Baseline (Day −1 [Visit 2]) to Day 7 (Visit 5) in Social Cognition Panel scales (Pictorial Empathy Test [PET], Reading the Mind in the Eyes Test [RMET], Toronto Empathy Questionnaire [TEQ], Social Value Orientation [SVO], Scale of Social Responsibility [SSR]). • c. The change from Baseline (Day −1 [Visit 2]) to Day 28 (Visit 6) in cognitive measures of attention, spatial and working memory and executive function as measured by a composite score of the CANTAB Panel (SWM, RVP, PAL). • d. The long-term change from Baseline (Day −1 [Visit 2]) to Day 84 (Visit 7) in Social Cognition Panel scales (PET, RMET, TEQ, SVO, SSR). • e. Dose-related differences between cognitive effects of psilocybin at Baseline (Day −1 [Visit 2]), Day 7 (Visit 5) and Day 28 (Visit 6), as measured by a composite score of the CANTAB Panel (SWM, RVP, PAL). • f. Dose-related differences between psychological effects of psilocybin at Baseline (Day −1 [Visit 2]), Day 7 (Visit 5) and Day 84 (Visit 7), as measured by Social Cognition Panel scales (PET, RMET, TEQ, SVO, SSR). • g. Differences in cognitive effects of psilocybin between psilocybin-naïve and experienced subjects at Baseline (Day −1 [Visit 2]), Day 7 (Visit 5) and Day 28 (Visit 6), as measured by a composite score of the CANTAB Panel (SWM, RVP, PAL). • h. Differences in Positive and Negative Affect Schedule (PANAS) after study drug administration on Day 0 (Visit 3). • i. Differences between psilocybin and placebo in the Emotion Recognition Test (ERT), Intra-Extra Dimensional Set Shift (IED), One Touch Stockings (OTS), Verbal Fluency and Digit Span Forward at Day 7 (Visit 5). • j. A composite score of the CANTAB Panel, including the following tests: • i. Spatial Working Memory (SWM) (performed at Visit 2, Visit 5, and Visit 6). • ii. Rapid Visual Information Processing (RVP) (performed at Visit 2, Visit 5, and Visit 6). • iii. Paired Associates Learning (PAL) (performed at Visit 2, Visit 5, and Visit 6). • k. Cognitive Flexibility Panel • i. Emotion Recognition Task (ERT) (performed at Visit 5). • ii. Intra-Extra Dimensional Set Shift (IED) (performed at Visit 5). • iii. One Touch Stockings (OTS) (performed at Visit 5). • iv. Verbal Fluency (performed at Visit 5). • v. Digit Span Forward (performed at Visit 5). • l. Five Dimension Altered States of Consciousness questionnaire (5D-ASC) (performed at Visit 3). • m. PANAS (performed at Visit 2 and Visit 3). • n. NEO-Five Factor Inventory (NEO-FFI) (performed at Visit 2, Visit 5, and Visit 7). • o. Symptom Checklist-90 item (SCL-90) (performed at Visit 2, Visit 5, and Visit 7). • p. Life Changes Inventory (LCI): The LCI measures changes in attitudes and values after near-death experiences often used to evaluate personal transformation following spiritually oriented experiences and practices. (performed at Visit 5 and Visit 7). • q. Social Cognition Panel scales • i. Pictorial Empathy Test (PET) (performed at Visit 2, Visit 5, and Visit 7). • ii. Reading the Mind in the Eyes Test (RMET) (performed at Visit 2, Visit 5, and Visit 7). • iii. Social Value Orientation (SVO) (performed at Visit 2, Visit 5, and Visit 7). • iv. Toronto Empathy Questionnaire (TEQ) (performed at Visit 2, Visit 5, and Visit 7). • v. Scale of Social Responsibility (SSR) (performed at Visit 2, Visit 5, and Visit 7). • r. Sheehan Suicidality Tracking Scale (SSTS) • s. Mini International Neuropsychiatric Interview (MINI). • t. […]

CN(C)CCc1c[nH]c2cccc(OP(=O)(O)O)c12 [psilocybin]
PET change from baseline, LS mean difference Psilocybin 10 mg - Placebo (Day 7, MMRM): −0.1
PET change from baseline, LS mean difference Psilocybin 25 mg - Placebo (Day 7, MMRM): 0.2
PET change from baseline, LS mean difference Psilocybin 25 mg-10 mg (Day 7, MMRM): 0.3
PET change from baseline, LS mean difference Psilocybin 10 mg - Placebo (Day 84, MMRM): −0.1
PET change from baseline, LS mean difference Psilocybin 25 mg - Placebo (Day 84, MMRM): 0.1
PET change from baseline, LS mean difference Psilocybin 25 mg-10 mg (Day 84, MMRM): 0.3
